{
  "source": "patent US8389011B2",
  "about": "“Pharmaceutical compositions of cholesteryl ester transfer protein inhibitors” (Bend Research, Inc., priority 2000, dated 2013)",
  "experiment": "Solubility in water",
  "type": "physicochemical",
  "settings": "aqueous solubility determined at about 22° C. unless otherwise specified, read-out: solubility in water",
  "source_text": "The invention is useful for CETP inhibitors which have sufficiently low aqueous solubility, low bioavailability or slow rate of absorption such that it is desirable to increase their concentration in an aqueous environment of use. Therefore, anytime one finds it desirable to raise the aqueous concentration of the CETP inhibitor in a use environment, the invention will find utility.",
  "data": [
    {"compound": "CCc1cc(Oc2cccc(N(Cc3cccc(OC(F)(F)C(F)F)c3)C[C@@H](O)C(F)(F)F)c2)ccc1Cl", "note": "[Drug 11, (2R)-3-[[3-(4-chloro-3-ethylphenoxy)phenyl][[3-(1,1,2,2-tetrafluoroethoxy)phenyl]methyl]amino]-1,1,1-trifluoro-2-propanol]", "values": [
      {"measurement": "solubility", "value": "< 1", "unit": "µg/mL"}
    ]},
    {"compound": "CC[C@@H]1C[C@H](N(Cc2cc(C(F)(F)F)cc(C(F)(F)F)c2)C(=O)OC)c2cc(C(F)(F)F)ccc2N1C(=O)OC(C)C", "note": "[Drug 12, [2R,4S]4-[(3,5-bis-trifluoromethyl-benzyl)-methoxycarbonyl-amino]-2-ethyl-6-trifluoromethyl-3,4-dihydro-2H-quinoline-1-carboxylic acid isopropyl ester]", "values": [
      {"measurement": "solubility", "value": "< 1", "unit": "µg/mL"}
    ]}
  ]
}
